# Measured values from patent publication US20230115208A1, “RING-FUSED THIAZOLINO 2-PYRIDONES, METHODS FOR PREPARATION THEREOF AND THEIR USE IN THE TREATMENT AND/OR PREVENTION OF TUBERCULOSIS” (QURETECH BIO AB, priority 2016, published 2023).
# System: katGFSAA6 Mtb (INH-resistant, frameshift at amino acid 6 in katG)
# Format: cell-based, Mycobacterium tuberculosis
row,Structure (SMILES),doubling time [h]
1,"O=C(O)[C@@H]1CSc2c(C3CC3)c(Cc3cccc4ccccc34)cc(=O)n21 [Example 1, (3R)-7-Cyclopropyl-6-[(1-naphthyl)methyl]-4-oxo-1-thia-3a-aza-3-indancarboxylic acid]",48
2,"NNC(=O)c1ccncc1 [INH, isonicotinylhydrazide, reference compound]",55
